This passage reports inhibition and Ki results from ChEMBL document CHEMBL3779816, “Microwave-assisted regioselective direct CH arylation of thiazole derivatives leading to increased 1receptor affinity” (Medchemcomm, 2016).

pKi: −log10 of the molar value.

The species entered for the first experiment is Rattus norvegicus. Kind of experiment: Displacement of [3H]di-o-tolylguanidine from sigma 2 receptor in rat liver membranes at 1 uM after 120 mins by liquid scintillation spectrometry in presence of (+)-pentazocine. Type of experiment: cell membranes. The following applies: Membrane. (Loss of bound radioactivity is the signal in a displacement assay; it reports binding, not function.)
As to `COC1Cc2cc(-c3ccc(C)cc3)sc2C2(CCN(Cc3ccccc3)CC2)O1` (stereo unspecified), the inhibition came to 44%. The same measure, in the same setting: the result for `COC1Cc2c(-c3ccc(C)cc3)csc2C2(CCN(Cc3ccccc3)CC2)O1` (stereo unspecified) reads 34%. As for `COC1Cc2ccsc2C2(CCN(Cc3ccccc3)CC2)O1` (stereo unspecified), the inhibition was found to be 16%.

For a further experiment, the target named is Sigma non-opioid intracellular receptor 1 (Cavia porcellus, UniProt Q60492). Kind of experiment: Displacement of [3H](+)-pentazocine from sigma 1 receptor in guinea pig brain membranes after 150 mins by liquid scintillation spectrometry. Type of experiment: cell membranes, Membrane.
Sigma non-opioid intracellular receptor 1, sequence (Q60492 whole entry): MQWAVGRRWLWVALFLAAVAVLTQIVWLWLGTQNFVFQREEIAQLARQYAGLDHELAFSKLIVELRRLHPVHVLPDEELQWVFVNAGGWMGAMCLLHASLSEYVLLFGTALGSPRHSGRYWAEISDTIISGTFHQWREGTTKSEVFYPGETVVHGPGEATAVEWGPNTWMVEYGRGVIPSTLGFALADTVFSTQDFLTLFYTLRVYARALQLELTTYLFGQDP
Conditions: not given
In the case of `Cc1ccc(-c2csc(C3(O)CCN(Cc4ccccc4)CC3)n2)cc1`, the negative-log Ki (pKi) was 8.42. Still for that read-out and setting: the result for `OC1(c2nccs2)CCN(Cc2ccccc2)CC1` reads 7.48; that for `Cc1ccc(-c2cnc(C3(O)CCN(Cc4ccccc4)CC3)s2)cc1`, 8.15.

Target in another experiment: not listed separately
Kind of experiment: Displacement of [3H]di-o-tolylguanidine from sigma 2 receptor in rat liver membranes after 120 mins by liquid scintillation spectrometry in presence of (+)-pentazocine.
Conditions: not given
Type of experiment: cell membranes, Membrane.
For `Cc1ccc(-c2csc(C3(O)CCN(Cc4ccccc4)CC3)n2)cc1`, the pKi is 6.81. Turning to `OC1(c2nccs2)CCN(Cc2ccccc2)CC1`, the pKi is 5.74. Turning to `Cc1ccccc1NC(=N)Nc1ccccc1C` [DITOLYLGUANIDINE], the pKi is 6.97. For `Cc1ccc(-c2cnc(C3(O)CCN(Cc4ccccc4)CC3)s2)cc1`, the pKi is 6.34. In the case of `O=C(CCCN1CCC(O)(c2ccc(Cl)cc2)CC1)c1ccc(F)cc1` [HALOPERIDOL], the pKi is 7.66.

For orientation: inhibition means the percentage by which the read-out fell short of the control. For orientation: pKi means the negative decadic logarithm of the Ki, by convention in mol/L.
